Assay results reported in PubChem BioAssay AID1195 (EPA DSSTox, 2008).

Test system: human maximum recommended daily dose, FDA database
Test: DSSTox (FDAMDD) FDA Maximum (Recommended) Daily Dose Database
Settings: hits give low values
Summary of the method: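 MRDD values come from clinical trials with daily oral dosing, usually for 3–12 months, for the average adult, in mg/day converted to mg/kg-bw/day assuming 60 kg. Antineoplastic mg/m2 doses are divided by 37. Activity score maps log10(1/MRDD mmol) onto 1–100.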

[1] = TherapeuticCategory: antidepressant
[2] = TherapeuticCategory: anxiolytic
[3] = TherapeuticCategory: antibacterial
[4] = TherapeuticCategory: bronchodilator
[5] = TherapeuticCategory: diagnostic aid
[6] = TherapeuticCategory: antidiabetic
[7] = TherapeuticCategory: antineoplastic
[8] = TherapeuticCategory: cardiotonic
[9] = TherapeuticCategory: antihypertensive
[10] = TherapeuticCategory: glucocorticoid
[11] = TherapeuticCategory: sedative, hypnotic
[12] = TherapeuticCategory: narcotic analgesic

## C[C@@H]1C[C@H]2[C@@H]3CCC4=CC(=O)C=C[C@]4(C)[C@@]3(F)[C@@H](O)C[C@]2(C)[C@@]1(O)C(=O)CO
TherapeuticCategory: glucocorticoid, anti inflammatory
  maximum recommended daily dose (mmol/kg-bw/day): 0.000382

## Fc1ccc([C@@H]2CCNC[C@H]2COc2ccc3c(c2)OCO3)cc1
[1]
  maximum recommended daily dose (mmol/kg-bw/day): 0.00253

## O=C1Nc2ccc(Cl)cc2C(c2ccccc2)=NC1O (stereo unspecified)
[2]
  maximum recommended daily dose (mmol/kg-bw/day): 0.00698

## C=CCN1C[C@H](C(=O)N(CCCN(C)C)C(=O)NCC)C[C@@H]2c3cccc4[nH]cc(c34)C[C@H]21
TherapeuticCategory: antidyskinetic, prolactin inhibitor, antiparkinsonian, dopamine receptor antagonist
  maximum recommended daily dose (mmol/kg-bw/day): 4.43e-05

## CC(C)(C)NCC(O)c1ccc(O)c(CO)c1 (stereo unspecified)
TherapeuticCategory: bronchodilator, tocolytic
  maximum recommended daily dose (mmol/kg-bw/day): 0.00223

## CN1CCCC(n2nc(Cc3ccc(Cl)cc3)c3ccccc3c2=O)CC1 (stereo unspecified)
TherapeuticCategory: antiallergic, antiasthmatic, antihistaminic
  maximum recommended daily dose (mmol/kg-bw/day): 0.000348

## Cn1nnnc1SCC1=C(C(=O)O)N2C(=O)[C@@H](NC(=O)[C@H](O)c3ccccc3)[C@H]2SC1
[3]
  maximum recommended daily dose (mmol/kg-bw/day): 0.216

## O=C(O)c1cn(C2CC2)c2cc(N3CCNCC3)c(F)cc2c1=O
[3]
  maximum recommended daily dose (mmol/kg-bw/day): 0.0401

## CC(C)Cc1ccc(C(C)C(=O)O)cc1 (stereo unspecified)
TherapeuticCategory: anti inflammatory
  maximum recommended daily dose (mmol/kg-bw/day): 0.194

## CNC(C)Cc1ccccc1OC (stereo unspecified)
[4]
  maximum recommended daily dose (mmol/kg-bw/day): 0.0558

## CCC(Cc1c(I)cc(I)c(N)c1I)C(=O)O (stereo unspecified)
[5]
  maximum recommended daily dose (mmol/kg-bw/day): 0.175

## COc1ccc2c(c1)C(=O)N(CCc1ccc(S(=O)(=O)NC(=O)NC3CCCCC3)cc1)C(=O)C2(C)C
[6]
  maximum recommended daily dose (mmol/kg-bw/day): 0.0019

## CC[N+]1(C)[C@@H]2CC(OC(=O)[C@H](CO)c3ccccc3)C[C@H]1[C@@H]1O[C@@H]12 (stereo partly specified)
[4]
  maximum recommended daily dose (mmol/kg-bw/day): 2.43e-05

## N#Cc1ccc(C(c2ccc(C#N)cc2)n2cncn2)cc1
[7]
  maximum recommended daily dose (mmol/kg-bw/day): 0.000146

## CC(=O)O[C@H]1C[C@H](O[C@H]2[C@@H](O)C[C@H](O[C@H]3[C@@H](O)C[C@H](O[C@H]4CC[C@@]5(C)[C@H](CC[C@@H]6[C@@H]5CC[C@]5(C)[C@@H](C7=CC(=O)OC7)CC[C@]65O)C4)O[C@@H]3C)O[C@@H]2C)O[C@H](C)[C@H]1O
[8]
  maximum recommended daily dose (mmol/kg-bw/day): 4.13e-06

## CCC1(c2ccccc2)NC(=O)N(C)C1=O (stereo unspecified)
TherapeuticCategory: anticonvulsant
  maximum recommended daily dose (mmol/kg-bw/day): 0.0458

## N#CC(CCN1CCC(C(=O)O)(c2ccccc2)CC1)(c1ccccc1)c1ccccc1
TherapeuticCategory: antiperistaltic, antidiarrheal
  maximum recommended daily dose (mmol/kg-bw/day): 0.000313

## Cc1ccc(S(=O)(=O)NC(=O)NC2CCCCC2)cc1N
[6]
  maximum recommended daily dose (mmol/kg-bw/day): 0.0107

## CCN(CC)CCSC(=O)C(c1ccccc1)c1ccccc1
TherapeuticCategory: anticholinergic, smooth muscle relaxant
  maximum recommended daily dose (mmol/kg-bw/day): 0.0153

## CC(C)NCC(O)COc1ccc(COCCOC(C)C)cc1 (stereo unspecified)
[9]
  maximum recommended daily dose (mmol/kg-bw/day): 0.00102

## Cc1onc(-c2c(F)cccc2Cl)c1C(=O)N[C@@H]1C(=O)N2[C@@H]1SC(C)(C)[C@@H]2C(=O)O
[3]
  maximum recommended daily dose (mmol/kg-bw/day): 0.147

## COc1ccc(C(CN(C)C)C2(O)CCCCC2)cc1 (stereo unspecified)
[1]
  maximum recommended daily dose (mmol/kg-bw/day): 0.0225

## CO[C@@H]1[C@@H](O[C@@H]2O[C@H](C)[C@@H](O[C@H]3C[C@@](C)(O)[C@@H](O)[C@H](C)O3)[C@H](N(C)C)[C@H]2O)[C@@H](CC=O)C[C@@H](C)[C@@H](O[C@@H]2CC[C@H](N(C)C)[C@@H](C)O2)/C=C/C=C/C[C@@H](C)OC(=O)C[C@H]1OC(C)=O
[3]
  maximum recommended daily dose (mmol/kg-bw/day): 0.0754

## COC(=O)[C@H]1[C@H]2C[C@@H]3c4[nH]c5ccccc5c4CCN3C[C@H]2C[C@@H](OC(=O)c2cc(OC)c(OC)c(OC)c2)[C@@H]1OC
[9]
  maximum recommended daily dose (mmol/kg-bw/day): 2.89e-05

## Cc1cc(/C=C/c2ccc3cc(N(C)C)ccc3[n+]2C)c(C)n1-c1ccccc1
TherapeuticCategory: anthelmintic
  maximum recommended daily dose (mmol/kg-bw/day): 0.00434

## O=NN(CCCl)C(=O)N[C@@H]1[C@@H](O)[C@H](O)[C@@H](CO)O[C@@H]1O
[7]
  maximum recommended daily dose (mmol/kg-bw/day): 0.0129

## COC(=O)[C@H](c1ccccc1Cl)N1CCc2sccc2C1
TherapeuticCategory: antithrombotic
  maximum recommended daily dose (mmol/kg-bw/day): 0.00388

## OC[C@@H](O)[C@@H](O)[C@H](O)[C@H](O)CO
TherapeuticCategory: diuretic, diagnostic aid
  maximum recommended daily dose (mmol/kg-bw/day): 5.48

## CN1CCN2c3ccccc3Cc3ccccc3C2C1 (stereo unspecified)
[1]
  maximum recommended daily dose (mmol/kg-bw/day): 0.00567

## Cc1ccccc1C(OCCN(C)C)c1ccccc1 (stereo unspecified)
TherapeuticCategory: skeletal muscle relaxant, antihistiminic
  maximum recommended daily dose (mmol/kg-bw/day): 0.0248

## C[C@]12C=CC(=O)C=C1CC[C@@H]1[C@@H]2[C@@H](O)C[C@@]2(C)[C@H]1CC[C@]2(O)C(=O)CO
[10]
  maximum recommended daily dose (mmol/kg-bw/day): 0.00924

## N[C@@H]1[C@@H](O)[C@@H](O[C@@H]2[C@@H](O)[C@H](O[C@H]3O[C@H](CO)[C@@H](O)[C@H](O)[C@H]3N)[C@@H](N)C[C@H]2N)O[C@H](CO)[C@H]1O
[3]
  maximum recommended daily dose (mmol/kg-bw/day): 0.031

## O=P(O)(O)OCC(Cl)(Cl)Cl
[11]
  maximum recommended daily dose (mmol/kg-bw/day): 0.145

## CC(C)NCC(O)COc1ccc(O)cc1 (stereo unspecified)
[8]
  maximum recommended daily dose (mmol/kg-bw/day): 0.00148

## CC(C)(C)NC(=O)[C@@H]1CN(Cc2cccnc2)CCN1C[C@@H](O)C[C@@H](Cc1ccccc1)C(=O)N[C@H]1c2ccccc2C[C@H]1O
TherapeuticCategory: antiviral
  maximum recommended daily dose (mmol/kg-bw/day): 0.0264

## C=CCN(C1=NCCN1)c1c(Cl)cccc1Cl
TherapeuticCategory: antiarrhythmic
  maximum recommended daily dose (mmol/kg-bw/day): 0.00492

## CO[C@@]1(NC(=O)C(C(=O)O)c2ccc(O)cc2)C(=O)N2C(C(=O)O)=C(CSc3nnnn3C)CO[C@@H]21 (stereo partly specified)
[3]
  maximum recommended daily dose (mmol/kg-bw/day): 0.128

## c1ccc2c(c1)Sc1ccccc1N2CC1CN2CCC1CC2 (stereo unspecified)
TherapeuticCategory: antihistaminic
  maximum recommended daily dose (mmol/kg-bw/day): 0.000518

## CC(C)[C@H](N)C(=O)OCCOCn1cnc2c(=O)[nH]c(N)nc21
TherapeuticCategory: antiviral
  maximum recommended daily dose (mmol/kg-bw/day): 0.154

## CN1CC[C@]23c4c5ccc(O)c4O[C@H]2C(=O)CC[C@@]3(O)[C@H]1C5
[12]
  maximum recommended daily dose (mmol/kg-bw/day): 0.000498

## CCOC(=O)[C@]1(c2ccccc2)CCC=C[C@H]1N(C)C
[12]
  maximum recommended daily dose (mmol/kg-bw/day): 0.0122

## C[C@H]1C[C@H]2[C@@H]3CCC4=CC(=O)C=C[C@]4(C)[C@H]3C(=O)C[C@]2(C)[C@@]1(O)C(=O)CO
[10]
  maximum recommended daily dose (mmol/kg-bw/day): 0.00215

## O=C(O)c1cc(O)c2c(c1)[C@H]([C@H]1c3cc(C(=O)O)cc(O)c3C(=O)c3c(O[C@@H]4O[C@H](CO)[C@@H](O)[C@H](O)[C@H]4O)cccc31)c1cccc(O[C@@H]3O[C@H](CO)[C@@H](O)[C@H](O)[C@H]3O)c1C2=O
TherapeuticCategory: cathartic
  maximum recommended daily dose (mmol/kg-bw/day): 0.0194

## O=C1CN=C(c2ccccc2)c2cc([N+](=O)[O-])ccc2N1
TherapeuticCategory: anticonvulsant, hypnotic
  maximum recommended daily dose (mmol/kg-bw/day): 0.00118

## Nc1cc(-c2ccncc2)c[nH]c1=O
[8]
  maximum recommended daily dose (mmol/kg-bw/day): 0.00401

## Cc1nnc2n1-c1ccc(Cl)cc1C(c1ccccc1)=NC2
[2]
  maximum recommended daily dose (mmol/kg-bw/day): 0.000541

## Cn1cc[nH]c1=S
TherapeuticCategory: antihyperthyroid
  maximum recommended daily dose (mmol/kg-bw/day): 0.00876

## CC/C(=C(/CC)c1ccc(O)cc1)c1ccc(O)cc1
TherapeuticCategory: estrogen
  maximum recommended daily dose (mmol/kg-bw/day): 0.0373

## CCCCc1ncc(/C=C(\Cc2cccs2)C(=O)O)n1Cc1ccc(C(=O)O)cc1
[9]
  maximum recommended daily dose (mmol/kg-bw/day): 0.0313

## OCC1COC(CCI)O1 (stereo unspecified)
TherapeuticCategory: expectorant
  maximum recommended daily dose (mmol/kg-bw/day): 0.0155

## CCCCNc1cc(C(=O)O)cc(S(N)(=O)=O)c1Oc1ccccc1
TherapeuticCategory: diuretic
  maximum recommended daily dose (mmol/kg-bw/day): 0.000458

## NCCc1ccn[nH]1
[5]
  maximum recommended daily dose (mmol/kg-bw/day): 0.0045

## CCC(=O)O[C@H]1CC[C@H]2[C@@H]3CC[C@H]4CC(=O)[C@H](C)C[C@]4(C)[C@H]3CC[C@]12C
[7]
  maximum recommended daily dose (mmol/kg-bw/day): 0.00463

## CCCC(C)C1(CC)C(=O)NC(=S)NC1=O (stereo unspecified)
TherapeuticCategory: short acting anesthetic
  maximum recommended daily dose (mmol/kg-bw/day): 0.0172

## C[C@](N)(Cc1ccc(O)cc1)C(=O)O
TherapeuticCategory: tyrosine hydroxylase inhibitor
  maximum recommended daily dose (mmol/kg-bw/day): 0.342

## COc1ccc(OC)c(C(O)CNC(=O)CN)c1 (stereo unspecified)
TherapeuticCategory: adrenergic, antihypotensive
  maximum recommended daily dose (mmol/kg-bw/day): 0.000983

## OC[C@@H](O)[C@H]1O[C@@H]2O[C@H](C(Cl)(Cl)Cl)O[C@@H]2[C@H]1O
[11]
  maximum recommended daily dose (mmol/kg-bw/day): 0.0269

## COc1ccc2c(c1OC)C(=O)O[C@@H]2[C@H]1c2c(cc3c(c2OC)OCO3)CCN1C
TherapeuticCategory: antitussive
  maximum recommended daily dose (mmol/kg-bw/day): 0.00605

## CCC(=O)c1ccc(O)cc1
TherapeuticCategory: pituitary gonadotrophic hormone inhibitor
  maximum recommended daily dose (mmol/kg-bw/day): 0.333

## COc1c2occc2cc2ccc(=O)oc12
TherapeuticCategory: pigmentation agent
  maximum recommended daily dose (mmol/kg-bw/day): 0.00278

## OC1C(O)C(O)C(O)C(O)C1O (stereo unspecified)
TherapeuticCategory: vitamin B complex, lipotropic
  maximum recommended daily dose (mmol/kg-bw/day): 0.555
